This is an account of results in patent publication US9938258B2 (Karyopharm Therapeutics Inc., priority 2012, dated 2018).

pIC50: −log10 of the molar value. Like-named read-outs stand apart in the source and are kept apart here.

One experiment has as its system MS751 cells. Briefly: MTT cell proliferation assay, MS751. It counts as cell-based, human. The conditions noted are these: Homo sapiens, MS751, MS751 cells, read-out: MTT Assay IC50, MS751. The method, boiled down:
(§1)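 Read-out: MTT reduction to formazan, solubilised and measured at 490 nm after ~4 h with MTT; inhibition (%) = (1-(ODo/OD))×100 relative to negative control. Seeding was 5,000-10,000 cells/well with overnight attachment. Eight test concentrations spanned 1 nM-30 μM; mostly duplicate, mean ± SE.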

The next experiment relates to Z138 cells. The experiment can be described thus: MTT cell proliferation assay, Z138. Format: cell-based. The conditions noted are these: Homo sapiens, Z-138, Z138 cells, read-out: MTT Assay IC50, Z138. An outline of the steps:
as §1

For the next experiment, the system named is 3T3 cells. The experiment can be described thus: MTT cell proliferation assay, 3T3. Format: cell-based, mouse. To be noted: Mus musculus, NIH3T3, 3T3 cells, read-out: MTT Assay IC50, 3T3. The method, boiled down: as §1
For orientation: Formazan colour is commonly taken as a measure of viable cells.

Setting [1] is: eight concentrations 1 nM to 30 μM, incubation approximately 64-72 hours.
The mark [2] stands for this setting: approximately 64-72 hours incubation.

A word on the pIC50: it is the negative decadic logarithm of the IC50, by convention in mol/L. `CC(=O)c1ccc(-c2cc(Cl)c3c(c2)CC(CNC(=O)/C=C/c2c(C)nn(C)c2Cl)O3)s1` (stereo not drawn) [Compound 160, (E)-N-((5-(5-acetylthiophen-2-yl)-7-chloro-2,3-dihydrobenzofuran-2-yl)methyl)-3-(5-chloro-1,3-dimethyl-1H-pyrazol-4-yl)acrylamide]: the pIC50 with MS751 cells (setting [1]), in the experiment on Z138 cells (setting [1]) and in the experiment with 3T3 cells (setting [1]) was less than 4.52 in each case.

Regarding `CC(=O)c1ccc(-c2cc(Cl)c3c(c2)CC(CNC(=O)/C=C/c2c(C)nc4sc(C)cn24)O3)s1` (stereo not drawn) [Compound 161, (E)-N-((5-(5-acetylthiophen-2-yl)-7-chloro-2,3-dihydrobenzofuran-2-yl)methyl)-3-(2,6-dimethylimidazo[2,1-b]thiazol-5-yl)acrylamide], the negative-log IC50 (pIC50) in the experiment with MS751 cells (setting [1]), in the experiment on Z138 cells (setting [1]) and in the experiment on 3T3 cells (setting [1]) was less than 4.52 throughout.

As for `CC(OC(=O)CCCC[C@@H]1SC[C@@H]2NC(=O)N[C@@H]21)c1ccc(-c2cc(Cl)c3c(c2)CC(CNC(=O)/C=C/c2cccnc2)O3)s1` (stereo partly drawn) [Compound 162, 1-(5-(7-chloro-2-(((E)-3-(pyridin-3-yl)acrylamido)methyl)-2,3-dihydrobenzofuran-5-yl)thiophen-2-yl)ethyl 5-((3aS,4S,6aR)-2-oxohexahydro-1H-thieno[3,4-d]imidazol-4-yl)pentanoate], the figures for the negative-log IC50 (pIC50) with MS751 cells (setting [1]), in the experiment on Z138 cells (setting [1]) and in the experiment on 3T3 cells (setting [1]) were greater than 7.00, greater than 7.00 and 5.30 to 7.00, respectively.

Consider `CC(=O)c1ccc(-c2cc(Cl)c3c(c2)CC(CNC(=O)/C=C/c2sccc2Cl)O3)s1` (stereo not drawn) [Compound 163, (E)-N-((5-(5-acetylthiophen-2-yl)-7-chloro-2,3-dihydrobenzofuran-2-yl)methyl)-3-(3-chlorothiophen-2-yl)acrylamide], for which the pIC50 in the experiment with MS751 cells (setting [1]), in the experiment with Z138 cells (setting [1]) and in the experiment on 3T3 cells (setting [1]) was less than 4.52 in each case.

In the case of `CC(=O)c1ccc(-c2cc(Cl)c3c(c2)CC(CNC(=O)/C=C/c2nccn2C)O3)s1` (stereo not drawn) [Compound 164, (E)-N-((5-(5-acetylthiophen-2-yl)-7-chloro-2,3-dihydrobenzofuran-2-yl)methyl)-3-(1-methyl-1H-imidazol-2-yl)acrylamide], the pIC50 in the experiment with MS751 cells (setting [1]), with Z138 cells (setting [1]) and in the experiment with 3T3 cells (setting [1]) was less than 4.52 in each case.

As for `CC(=O)c1ccc(-c2ccc(Cl)c3c2CC(CNC(=O)/C=C/c2cccnc2)O3)s1` (stereo not drawn) [Compound 173, (E)-N-((4-(5-acetylthiophen-2-yl)-7-chloro-2,3-dihydrobenzofuran-2-yl)methyl)-3-(pyridin-3-yl)acrylamide], the negative-log IC50 (pIC50) in the experiment on MS751 cells (setting [1]), in the experiment with Z138 cells (setting [1]) and with 3T3 cells (setting [1]) was 5.30 to 7.00 throughout.

Take `CC(=O)c1ccc(-c2cc(Cl)c3c(c2)CC(CNC(=O)/C=C/c2ccc(C)nc2C)O3)s1` (stereo not drawn) [Compound 174, (E)-N-((5-(5-acetylthiophen-2-yl)-7-chloro-2,3-dihydrobenzofuran-2-yl)methyl)-3-(2,6-dimethylpyridin-3-yl)acrylamide]: the negative-log IC50 (pIC50) in the experiment on MS751 cells (setting [1]), with Z138 cells (setting [1]) and in the experiment on 3T3 cells (setting [1]) was less than 4.52 each time.

For `CCc1nc(C)c(/C=C/C(=O)NCC2Cc3cc(-c4ccc(C(C)=O)s4)cc(Cl)c3O2)[nH]1` (stereo not drawn) [Compound 177, (E)-N-((5-(5-acetylthiophen-2-yl)-7-chloro-2,3-dihydrobenzofuran-2-yl)methyl)-3-(2-ethyl-4-methyl-1H-imidazol-5-yl)acrylamide], the pIC50 was 5.30 to 7.00 with MS751 cells (setting [1]), 5.30 to 7.00 in the experiment on Z138 cells (setting [1]) and less than 4.52 in the experiment on 3T3 cells (setting [1]).

Regarding `C/C=C/C(=O)NCC1Cc2cc(-c3ccc(C(C)=O)s3)cc(Cl)c2O1` (stereo not drawn) [Compound 181, (E)-N-((5-(5-acetylthiophen-2-yl)-7-chloro-2,3-dihydrobenzofuran-2-yl)methyl)but-2-enamide], the pIC50 in the experiment on MS751 cells (setting [1]), in the experiment on Z138 cells (setting [1]) and in the experiment with 3T3 cells (setting [1]) was less than 4.52 throughout.

In the case of `CC(=O)c1ccc(-c2cc(Cl)c3c(c2)CC(CNC(=O)/C=C/c2cccnc2C)O3)s1` (stereo not drawn) [Compound 182, (E)-N-((5-(5-acetylthiophen-2-yl)-7-chloro-2,3-dihydrobenzofuran-2-yl)methyl)-3-(2-methylpyridin-3-yl)acrylamide], the results for the negative-log IC50 (pIC50) in the experiment on MS751 cells (setting [1]), with Z138 cells (setting [1]) and with 3T3 cells (setting [1]) were 4.52 to 5.30, less than 4.52 and less than 4.52, respectively.

Take `CC(=O)c1ccc(-c2cc(Cl)c3c(c2)CC(CNC(=O)/C=C/c2cc(C)[nH]c2C)O3)s1` (stereo not drawn) [Compound 185, (E)-N-((5-(5-acetylthiophen-2-yl)-7-chloro-2,3-dihydrobenzofuran-2-yl)methyl)-3-(2,5-dimethyl-1H-pyrrol-3-yl)acrylamide]: the negative logarithm of the IC50 (pIC50) with MS751 cells (setting [1]), with Z138 cells (setting [1]) and in the experiment with 3T3 cells (setting [1]) was less than 4.52 throughout.

For the compound `CC(=O)c1ccc(-c2cc(Cl)c3c(c2)CC(CNC(=O)/C=C/c2cn(C)c4ccccc24)O3)s1` (stereo not drawn) [Compound 189, (E)-N-((5-(5-acetylthiophen-2-yl)-7-chloro-2,3-dihydrobenzofuran-2-yl)methyl)-3-(1-methyl-1H-indol-3-yl)acrylamide], the pIC50 in the experiment with MS751 cells (setting [1]), in the experiment on Z138 cells (setting [1]) and in the experiment with 3T3 cells (setting [1]) was less than 4.52 throughout.

With `CC(=O)c1ccc(-c2cc(Cl)c3c(c2)CC(CNC(=O)/C=C/c2nc4ccccc4s2)O3)s1` (stereo not drawn) [Compound 190, (E)-N-((5-(5-acetylthiophen-2-yl)-7-chloro-2,3-dihydrobenzofuran-2-yl)methyl)-3-(benzo[d]thiazol-2-yl)acrylamide], the pIC50 with MS751 cells (setting [1]), in the experiment on Z138 cells (setting [1]) and in the experiment with 3T3 cells (setting [1]) was less than 4.52 in each case.

As to `CCn1ccnc1/C=C/C(=O)NCC1Cc2cc(-c3ccc(C(C)=O)s3)cc(Cl)c2O1` (stereo not drawn) [Compound 191, (E)-N-((5-(5-acetylthiophen-2-yl)-7-chloro-2,3-dihydrobenzofuran-2-yl)methyl)-3-(1-ethyl-1H-imidazol-2-yl)acrylamide], the pIC50 was 4.52 to 5.30 in the experiment with MS751 cells (setting [2]), 4.52 to 5.30 in the experiment with Z138 cells (setting [2]) and less than 4.52 in the experiment with 3T3 cells (setting [2]).

`CC(=O)c1ccc(-c2cc(Cl)c3c(c2)CC(CNC(=O)/C(C#N)=C/c2cccnc2)O3)s1` (stereo not drawn) [Compound 195, (E)-N-((5-(5-acetylthiophen-2-yl)-7-chloro-2,3-dihydrobenzofuran-2-yl)methyl)-2-cyano-3-(pyridin-3-yl)acrylamide]: the negative-log IC50 (pIC50) in the experiment with MS751 cells (setting [2]) was 4.52 to 5.30; in the experiment on Z138 cells (setting [2]) it was 4.52 to 5.30; in the experiment on 3T3 cells (setting [2]) it was less than 4.52.

Turning to `CC(=O)c1ccc(-c2cc(Cl)c3c(c2)CC(CNC(=O)/C=C/c2coc(C)n2)O3)s1` (stereo not drawn) [Compound 196, (E)-N-((5-(5-acetylthiophen-2-yl)-7-chloro-2,3-dihydrobenzofuran-2-yl)methyl)-3-(2-methyloxazol-4-yl)acrylamide], the pIC50 in the experiment with MS751 cells (setting [2]), in the experiment on Z138 cells (setting [2]) and in the experiment with 3T3 cells (setting [2]) was less than 4.52 in each case.

Consider `CC(=O)c1ccc(-c2cc(Cl)c3c(c2)CC(CNC(=O)/C=C/c2csc4ccccc24)O3)s1` (stereo not drawn) [Compound 200, (E)-N-((5-(5-acetylthiophen-2-yl)-7-chloro-2,3-dihydrobenzofuran-2-yl)methyl)-3-(benzo[b]thiophen-3-yl) acrylamide], for which the pIC50 in the experiment on MS751 cells (setting [2]), in the experiment on Z138 cells (setting [2]) and with 3T3 cells (setting [2]) was less than 4.52 throughout.

In the case of `CC(=O)c1ccc(-c2cc(Cl)c3c(c2)CC(CNC(=O)/C=C/c2nccn2-c2ccccc2)O3)s1` (stereo not drawn) [Compound 201, (E)-N-((5-(5-acetylthiophen-2-yl)-7-chloro-2,3-dihydrobenzofuran-2-yl)methyl)-3-(1-phenyl-1H-imidazol-2-yl)acrylamide], the pIC50 in the experiment on MS751 cells (setting [2]), with Z138 cells (setting [2]) and in the experiment on 3T3 cells (setting [2]) was 4.52 to 5.30 throughout.

With `CC(=O)c1ccc(-c2cc(Cl)c3c(c2)CC(CNC(=O)/C=C/c2cnc(C(C)(C)C)s2)O3)s1` (stereo not drawn) [Compound 205, (E)-N-((5-(5-acetylthiophen-2-yl)-7-chloro-2,3-dihydrobenzofuran-2-yl)methyl)-3-(2-tert-butylthiazol-5-yl)acrylamide], the negative-log IC50 (pIC50) was 4.52 to 5.30 with MS751 cells (setting [2]), 5.30 to 7.00 in the experiment with Z138 cells (setting [2]) and less than 4.52 with 3T3 cells (setting [2]).

In the case of `CC(=O)c1ccc(-c2cc(Cl)c3c(c2)CC(CNC(=O)/C=C/c2csc(-c4ccc(F)cc4)n2)O3)s1` (stereo not drawn) [Compound 206, (E)-N-((5-(5-acetylthiophen-2-yl)-7-chloro-2,3-dihydrobenzofuran-2-yl)methyl)-3-(2-(4-fluorophenyl)thiazol-4-yl)acrylamide], the pIC50 in the experiment on MS751 cells (setting [2]), in the experiment with Z138 cells (setting [2]) and in the experiment on 3T3 cells (setting [2]) was less than 4.52 each time.

Consider `CC(=O)c1ccc(-c2cc(Cl)c3c(c2)CC(CNC(=O)/C=C/c2nccs2)O3)s1` (stereo not drawn) [Compound 207], for which the pIC50 with MS751 cells (setting [2]), in the experiment on Z138 cells (setting [2]) and in the experiment on 3T3 cells (setting [2]) was less than 4.52 throughout.

In the case of `CC(=O)c1ccc(-c2cc(Cl)c3c(c2)CC(CNC(=O)/C=C/c2c(C)nn(-c4ccc(F)cc4)c2C)O3)s1` (stereo not drawn) [Compound 208, (E)-N-((5-(5-acetylthiophen-2-yl)-7-chloro-2,3-dihydrobenzofuran-2-yl)methyl)-3-(1-(4-fluorophenyl)-3,5-dimethyl-1H-pyrazol-4-yl)acrylamide], the results for the pIC50 in the experiment on MS751 cells (setting [2]), with Z138 cells (setting [2]) and in the experiment with 3T3 cells (setting [2]) were 4.52 to 5.30, 4.52 to 5.30 and less than 4.52, respectively.

As for `CC(=O)c1ccc(-c2cc(Cl)c3c(c2)CC(CNC(=O)/C=C/c2cc(C)n(-c4ccc(Cl)cc4)c2C)O3)s1` (stereo not drawn) [Compound 209, (E)-N-((5-(5-acetylthiophen-2-yl)-7-chloro-2,3-dihydrobenzofuran-2-yl)methyl)-3-(1-(4-chlorophenyl)-2,5-dimethyl-1H-pyrrol-3-yl)acrylamide], the pIC50 in the experiment with MS751 cells (setting [2]), in the experiment with Z138 cells (setting [2]) and with 3T3 cells (setting [2]) was less than 4.52 throughout.
